Experimental findings from PubChem BioAssay (NCI) are described below.

Test systems include SNB-19 CNS; MDA-MB-231 breast; SN12C renal; NCI-H460 lung; M14 melanoma; A498 renal; HCC-2998 colon; MDA-MB-435; SF-268 CNS; ACHN renal.
Common to all, as to experiment: NCI anticancer screen, dose series, 48 h

The structures appear in SMILES notation. “And” between values parts separate entries of the source, which are not always exact repeats. Equal values may be shown once.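 Dose response: 5 concentrations. Exposure: 48 h. Format: 96-well plates. Endpoint: linear interpolation; highest concentration if not reached. GI50 is the concentration that inhibits growth by half. TGI: concentration producing complete growth inhibition.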

On to `CC(=O)Nc1c(I)c(C(=O)O)c(I)c(N(C)C(C)=O)c1I`, for which the GI50 with SNB-19 CNS, in the assay on MDA-MB-231 breast, in the assay with SN12C renal, with NCI-H460 lung, with M14 melanoma and in the assay on A498 renal was over 100 µM each time. Further, the GI50 in the assay on HCC-2998 colon, in the assay with MDA-MB-435, with SF-268 CNS and with ACHN renal was over 100 µM in each case. The TGI in the assay with SNB-19 CNS, in the assay on MDA-MB-231 breast, with SN12C renal, in the assay on NCI-H460 lung, in the assay with M14 melanoma and in the assay on A498 renal was over 100 µM throughout. The TGI with HCC-2998 colon, in the assay with MDA-MB-435, with SF-268 CNS and in the assay on ACHN renal was over 100 µM throughout.

With `O=C(O)CC1C(=O)OC2C3COC(=O)c4cc(O)c(O)c(O)c4-c4c(cc(O)c(O)c4O)C(=O)OC2C(OC(=O)c2cc(O)c(O)c4c2C1C(O)C(=O)O4)C(OC(=O)c1cc(O)c(O)c(O)c1)O3` (stereo not given), the TGI in the assay with SNB-19 CNS was over 100 µM; with MDA-MB-231 breast, 78.6 µM; in the assay with SN12C renal, 36.3 µM; in the assay on NCI-H460 lung it was 31.4 µM; in the assay with M14 melanoma, over 100 µM; in the assay on A498 renal, over 100 µM. Moreover, the TGI in the assay on HCC-2998 colon is over 100 µM; in the assay on MDA-MB-435, 83 µM; in the assay with SF-268 CNS it was over 100 µM; in the assay with ACHN renal, over 100 µM.

Consider `O=S1CCN(Cc2ccc(-c3ccc4ncnc(Nc5ccc(OCc6ccccc6)c(F)c5)c4c3)o2)CC1`, for which the GI50 in the assay on SNB-19 CNS is 23.4 µM; with MDA-MB-231 breast, 7.07 µM; in the assay with SN12C renal it was 8.07 µM; in the assay with NCI-H460 lung, 7.91 µM; with M14 melanoma, 6.26 µM; in the assay on A498 renal it was 3.68 µM. Further, the GI50 is 9.93 µM in the assay on HCC-2998 colon, 7.21 µM in the assay with MDA-MB-435, 17.8 µM in the assay with SF-268 CNS and 0.757 µM with ACHN renal. Further, the TGI with SNB-19 CNS was over 25 µM; in the assay on MDA-MB-231 breast it was over 23.7 µM; with SN12C renal, over 25 µM; in the assay with NCI-H460 lung it was over 25 µM; with M14 melanoma, over 21.6 µM; with A498 renal, 21.6 µM. Further, the TGI with HCC-2998 colon was over 25 µM; with MDA-MB-435 it was over 24.2 µM; in the assay on SF-268 CNS it was over 25 µM; in the assay with ACHN renal it was over 25 µM.

Turning to `O=C1NC(=O)C(N2CCc3ccccc32)=C1c1ccc(Cl)cc1`, the GI50 is over 25 µM in the assay on SNB-19 CNS; over 25 µM with MDA-MB-231 breast; over 25 µM in the assay with SN12C renal; over 25 µM with NCI-H460 lung; over 25 µM with M14 melanoma; over 22.4 µM in the assay on A498 renal. Besides, the GI50 in the assay with HCC-2998 colon, in the assay on MDA-MB-435, in the assay on SF-268 CNS and in the assay with ACHN renal was over 25 µM throughout. In addition, the TGI in the assay on SNB-19 CNS, in the assay with MDA-MB-231 breast, in the assay with SN12C renal, in the assay on NCI-H460 lung, in the assay with M14 melanoma and with A498 renal was over 25 µM throughout. The TGI with HCC-2998 colon, in the assay on MDA-MB-435, in the assay on SF-268 CNS and with ACHN renal was over 25 µM throughout.

Regarding `O=C1c2ccccc2C(=O)c2c(NCCNCCO)ccc(NCCNCCO)c21`, the GI50 in the assay with SNB-19 CNS is 0.372 µM and 0.625 µM and 0.584 µM; with MDA-MB-231 breast it was 1.56 µM and 1.63 µM and 1.52 µM; with SN12C renal, 0.183 µM and 0.358 µM and 0.292 µM; in the assay with NCI-H460 lung, 0.127 µM and 0.158 µM and 0.189 µM; in the assay on M14 melanoma it was 1.9 µM and 2.64 µM and 1.7 µM; in the assay on A498 renal it was 0.193 µM and 1.37 µM and 0.565 µM. In addition, the GI50 in the assay with HCC-2998 colon is 1.39 µM and 1.95 µM and 2.18 µM; with MDA-MB-435, 2.43 µM and 3.09 µM and 1.95 µM; in the assay on SF-268 CNS it was 0.276 µM and 0.257 µM and 0.36 µM; in the assay with ACHN renal, 2.05 µM and 0.967 µM and 1.39 µM. For the same compound, the TGI is 4.19 µM and 9.76 µM and 5.58 µM in the assay on SNB-19 CNS; 5.85 µM and 6.54 µM and 4.47 µM in the assay on MDA-MB-231 breast; 4.57 µM and 12.5 µM and 9.84 µM in the assay with SN12C renal; 1.91 µM and 3.38 µM and 2.16 µM with NCI-H460 lung; 8.52 µM and 13.6 µM and 11.6 µM in the assay on M14 melanoma; 1.11 µM and 7 µM and 3.61 µM in the assay with A498 renal. For the same compound, the TGI in the assay with HCC-2998 colon is 3.78 µM and 7.83 µM and 7.03 µM; in the assay with MDA-MB-435, 7.22 µM and 13.2 µM and 6.06 µM; in the assay with SF-268 CNS, 2.61 µM and 3.34 µM and 3.76 µM; in the assay on ACHN renal, 49 µM and 13 µM and > 44.8 µM.

Consider `Cc1ccn2c(-c3csc(Nc4cccc(O)c4)n3)c(C)nc2c1`, for which the GI50 in the assay on SNB-19 CNS is 4.66 µM; with MDA-MB-231 breast, 0.751 µM; in the assay with SN12C renal it was 0.946 µM; with NCI-H460 lung, 0.423 µM; in the assay with M14 melanoma, 0.359 µM; in the assay on A498 renal, 0.926 µM. In addition, the GI50 with HCC-2998 colon was 2.81 µM; in the assay with MDA-MB-435, 0.059 µM; in the assay on SF-268 CNS, 0.785 µM; in the assay on ACHN renal, 0.812 µM. The TGI came out at 77.4 µM with SNB-19 CNS; 11.6 µM in the assay on MDA-MB-231 breast; 27.8 µM in the assay with SN12C renal; 16.9 µM in the assay on NCI-H460 lung; 18 µM in the assay on M14 melanoma; 32.1 µM in the assay with A498 renal. For the same compound, the TGI is 17.4 µM in the assay with HCC-2998 colon, 0.281 µM with MDA-MB-435, 42.6 µM in the assay with SF-268 CNS and over 100 µM in the assay on ACHN renal.

Consider `Cc1cc2oc(=O)c(Cl)c(Cl)c2c(C)c1Cl`, for which the TGI with SNB-19 CNS came to 24.6 µM; with MDA-MB-231 breast, 28.7 µM; in the assay on SN12C renal it was 24.5 µM; with NCI-H460 lung, 59.9 µM; with M14 melanoma it was 22.4 µM; with A498 renal, 34 µM. Also, the TGI in the assay with HCC-2998 colon is 14.1 µM; in the assay on MDA-MB-435 it was 15.3 µM; in the assay with SF-268 CNS, 11.5 µM; in the assay with ACHN renal it was 23.3 µM.

Take `Cc1ccc(-c2c3c(N)nc(-c4ccncc4)nc3nc3c2c(C)nn3-c2ccccc2)cc1`: the GI50 is over 37.5 µM in the assay on SNB-19 CNS; 4.51 µM with MDA-MB-231 breast; 2.58 µM in the assay with SN12C renal; 6.5 µM with NCI-H460 lung; 13.8 µM with M14 melanoma; 5.81 µM in the assay on A498 renal. The GI50 is over 37.5 µM with HCC-2998 colon, 12.6 µM in the assay with MDA-MB-435, 8.27 µM with SF-268 CNS and over 37.5 µM in the assay on ACHN renal. The TGI in the assay on SNB-19 CNS is over 37.5 µM; with MDA-MB-231 breast, 13.4 µM; with SN12C renal it was over 37.5 µM; in the assay with NCI-H460 lung it was 33.6 µM; with M14 melanoma, over 37.5 µM; in the assay on A498 renal it was over 37.5 µM. For the same compound, the TGI in the assay with HCC-2998 colon, in the assay with MDA-MB-435, in the assay with SF-268 CNS and in the assay with ACHN renal was over 37.5 µM throughout.
